Values quoted from earlier work, collected in patent US20120195873A1, “METHODS OF A[…] LOSS OF […]” (NESTEC S.A., priority 2009, published 2012).

Legend:
[1] = tested on: skeletal muscle; settings: animal data, exogenous 25-OH
[2] = 400 mg twice daily; heavy exercise, calcium loss through sweat
[3] = tested on: skeletal muscle; settings: vitamin D deficient rats
[4] = tested on: type II muscle fibers; settings: vitamin D deficient patients, pre- vs post-supplementation
[5] = tested on: lower extremity muscle performance; settings: elderly; amounts bringing mean serum 25-OH Vitamin D to 66-84 nmol/L

**Q.** With 25-Hydroxy Vitamin D [25-OH] as the compound, how does the “skeletal muscle protein synthesis” value [1] read?
**A.** The value was “increases skeletal muscle protein synthesis”.

**Q.** With `O=C([O-])[O-].[Ca+2]` [calcium carbonate] as the compound, how does the “offset of exercise-induced net calcium loss” value [2] read?
**A.** The value was “sufficient to offset this loss”.

**Q.** Which muscle mass [3] does the source give for vitamin D here?
**A.** The muscle mass was “increased muscle mass”.

**Q.** What about the “rate of myofibrillar protein degradation” value [3] of the same compound?
**A.** Its value is “decreased rate of myofibrillar protein degradation”.

**Q.** What about the weight gain [3] of the same compound?
**A.** Its weight gain is “weight gain”.

**Q.** What about the “atrophy of type II muscle fibers in biopsies” value [4] of the same compound?
**A.** The value was “significant improvements were observed post-supplementation”.

**Q.** What about the “lower extremity muscle performance” value [5] of the same compound?
**A.** Its value is “improves lower extremity muscle performance”.
